13 compounds from US10624947B2, “Bactericidal peptides and uses thereof” (INDIANA UNIVERSITY RESEARCH AND TECHNOLOGY CORPORATION, priority 2016, dated 2020) can be followed below.

The test system of one data set is E. coli Top10pHNSHP45. The data set is described as follows: Killing of colistin-resistant E. coli harboring mcr-1 plasmid. The settings on record: for Reduction of Top10pHNSHP45 colony formation: 5 minute incubation (FIG. 12B). It is filed as cell-based, Escherichia coli.
For the next data set, the system named is Toll-like receptor 3. The data set is described as follows: Poly(I:C)-induced cytokine production in BEAS-2B cells, ELISA. The settings on record: peptide 2 μM. The class given is cell-based, human.
For another data set, the system named is 19 Gram-negative strains. The data set is described as follows: MIC panel, number of strains inhibited. It is filed as cell-based. The settings on record: of 19 Gram-negative strains.
The nature of data set [1]: Toxicity of peptides injected intraperitoneally. The settings on record: intraperitoneal, 10 or 20 μM. It is filed as in vivo, mice. The procedure:
FIGS. 23A, B show the efficacy and toxicity of modified peptides in mice. […] The survival of mice injected intraperitoneally with iron dextran at 48 h after intraperitoneal injection of 10 or 20 μM of the modified peptides. […] Vibrio vulnificus (V. v.) strain CMCP6 was injected at 1×10^6 CFU. […] All mice receive iron dextran by intraperitoneal injection. Where indicated, 1 h later 10^6 bacterial CFU in 100 μL was injected into the peritoneum (opposite side). 1 h later, 100 μL of the peptide at the indicated concentration was administered on the same side as the bacterial injection.
Since B22a was effective in preventing infection of V. vulnificus in a surgical incision model, we tested it for efficacy for systemic infection in a mouse septicemia model (1). Groups of mice (strain CD-1) were first injected with […], followed 1 h later with an intraperitoneal injection of 1×10e6 colony forming units of V. vulnificus strain […]. The B22a was then injected intraperitoneally 1 h later and morbidity was monitored hourly for two days.
PB22N and other modified peptides were tested in a septicemic mouse model. V. vulnificus is a highly-pathogenic bacterium, causing septicemia and high mortality. In mice injected intraperitoneally with V. vulnificus, the majority of the mice had to be euthanized within 24 h due to severe symptoms associated with septicemia (FIG. 23B). […] PB22N was effective in preventing mice from succumbing to systemic infection by the highly virulent V. vulnificus.

The next data set relates to Pseudomonas aeruginosa. It is filed as cell-based.
The subject of a further data set is Vibrio vulnificus. The data set is described as follows: Lethal sepsis model, surgical incision infection. The settings on record: no V. vulnificus.
Data set [2] concerns human red blood cells (hRBCs). As to the kind of experiment: Hemolytic activity. It is filed as cell-based.
Method: The amount of hemoglobin released was measured by the absorbance at 435 nm after a 60-minute incubation with the antimicrobial peptide. The percentage of hRBC lysis was normalized to the amount hemoglobin released by the suspension of the hRBCs in deionized water. The background amount of hRBC lysis was determined by adding phosphate buffered saline (PBS) at the same volume as 8 μM of the peptide to the hRBC for 1 h.
The hemolytic activities of peptides were determined using human red blood cells (hRBCs) (Innovative Research, Inc., cat. # IPLA-WB3-18103). The hRBCs were washed three times with PBS and then resuspended in PBS. The hRBCs solution was mixed with serial dilutions of the peptides in PBS buffer. The reaction mixtures were incubated for 45 min at 37° C. After centrifugation at 94×g for 10 min, the intact hRBCs were pelleted and the hemoglobin released from hRBCs was monitored by measuring the absorbance of the supernatant at 415 nm. The background level of absorbance was measured in sampled incubated with only PBS buffer. 100% hemolysis was determined in sampled incubated with water. The percentage of hemolysis was calculated according to the following equation. Percentage of hemolysis=[(Asample−Ablank)/Awater]*100%
Mammalian cells are thought to be less susceptible to cathelicidin peptides in part because the composition of their membrane will be less likely to interact with the peptides. To address this directly, human red blood cells (hRBCs) were tested for lysis after a 45-minute incubation with the peptides. The total lysis of hRBCs was determined by adding water to the cells. The amount of lysis during handling was determined by the addition of phosphate buffered saline at the same volume as that of the peptides.
The test system of a further data set is Cultured human cells. The data set is described as follows: MTT cytotoxicity assay. It is filed as cell-based.
A further data set relates to V. angustum. As to the kind of experiment: Vibrios killing activity. It is filed as cell-based. The settings on record: increasing concentrations of SMAP-29C.
The next data set concerns V. fischeri. As to the kind of experiment: Vibrios killing activity. The class given is cell-based. The settings on record: increasing concentrations of SMAP-29C.
The next data set deals with V. harveyi. The data set is described as follows: Vibrio growth with increasing peptide concentration. The class given is cell-based. The settings on record: increasing concentrations of SMAP-29C. How it is done:
Bacteria within Vibrio genus are highly sensitive to the SMAP-29C peptide. Various strains of Vibrio were treated with increasing concentrations of SMAP-29C (See FIG. 7).

In a further data set the test system is E. coli ATCC 25922. The data set is described as follows: Bactericidal activity, viable colony formation. It is filed as cell-based, Escherichia coli. The settings on record: for Viable colony formation, E. coli ATCC 25922 / Fold reduction, E. coli ATCC 25922: 2 μM peptide for 30 min; for Fold reduction, E. coli ATCC 25922: versus mock. The procedure:
(§1) The broth dilution assay tested for the inhibition of growth. To determine whether B22a has bactericidal activity, viable colonies that formed after bacteria were treated with 2 μM of B22a for 30 min were enumerated (Table 7). Peptide B22a reduced viable colony formation by E. coli by over 2 orders of magnitude. B22a reduced viable colony formation by P. aeruginosa by over 3 orders of magnitudes. B22a, like its predecessor B22, is a bactericidal for Gram-negative bacteria.

In the next data set the test system is P. aeruginosa PAO1. As to the kind of experiment: Bactericidal activity, viable colony formation. It is filed as cell-based, Pseudomonas aeruginosa. The settings on record: for Viable colony formation, P. aeruginosa PAO1 / Fold reduction, P. aeruginosa PAO1: 2 μM peptide for 30 min; for Fold reduction, P. aeruginosa PAO1: versus mock. How it is done:
as §1

In a further data set the test system is P. aeruginosa. As to the kind of experiment: Growth rate of culture, optical density. It is filed as cell-based, Pseudomonas aeruginosa. The settings on record: 30 nM peptide. The procedure:
FIG. 21 is a graph showing of peptide B22 (mock), B22a and B22m1 (each at […]) can reduce bacterial growth of P. aeruginosa, wherein the bacteria were grown in a plate reader at 37° C. and shaken. Optical density was monitored every ten (10) minutes to track the growth rate.
This low concentration of the peptide should further decrease the possibility of peptide oligomerization, as oligomerization should be dependent on the concentration of the peptide. The growth of the bacterial culture was then monitored over time. […] The cell division time of E. coli and Enterobacter cloacae were also in the absence or presence of 100 nM of B22a. The presence of B22a increased the doubling time of both bacterial by more than 2-fold. […] Should B22a and B22m1 inhibit bacteria growth as well as kill bacteria through the formation of higher order structures in the membrane, the peptides may have multiple mechanisms to act against bacteria survival. Peptides that act by multiple mechanisms may result in lower bacterial resistance to the peptides.

Entries after “also recorded” stand apart in the source; their conditions may differ. Read-outs that look alike come from different tables or passages of the source. Square brackets hold non-standard residues; d marks the D form. Ends that are not written are not given here. Peptide text beside a SMILES is read from it. AEEA = NCCOCCOCC(=O)O Where only a bound is given, the exact number is not on record here.

Method for 19 Gram-negative strains: (§2) Antimicrobial activity was determined using the broth microdilution method based on the general recommendation of the Clinical and Laboratory Standards Institute. Bacteria were grown in Mueller-Hinton broth at 37° C. until OD625 reached 0.06, and then bacteria were further diluted into 1:20 for later use. […] 10 microliter (μL) of diluted bacteria was mixed with 90 μL of peptides at varying concentrations followed by incubation at 37° C. for 16-18 hours. The MIC is the lowest peptide concentration at which visible growth was inhibited. The MIC value was determined at least twice in independent experiments and typically in 3-4 assays.
Method for E. coli Top10pHNSHP45: 1×10^5 CFUs of the bacteria were incubated for 30 min with the concentration of the peptides or colistin shown. Approximately 500 CFUs were then added as a droplet onto nonselective media for 18 h. […] The numbers are the means of three independent assays and those in parenthesis are the range for one standard deviation.
Each antimicrobial peptide was assayed at a final concentration of 2 μM. The number of viable bacterial colonies were determined by plating on a non-selective media and enumerated. Each result is the average of three independent assays. The fold reduction in the colony forming units (CFU) was calculated by dividing the number of CFUs in the mock-treated sample with the number in the peptide-treated samples.
Method for Enterobacter cloacae: as §2
Method for Enterococcus faecalis: as §2
Method for Escherichia coli: as §2
Method for Klebsiella pneumoniae: as §2
Method for Pseudomonas aeruginosa: as §2
Method for Serratia marcescens: as §2
Method for Staphylococcus aureus: as §2
Method for Toll-like receptor 3: Lung epithelial BEAS-2B cells were induced with poly(I:C) at 0.1 μg/ml and the amount of IL-6 secreted into the media 20 h later was assessed by ELISA. Where present, the antimicrobial peptide was at a final concentration of 2 μM.
IL-6 production was quantified by ELISA using the OptEIA™ kit (BD Biosciences). A typical assay used 2×10^4 BEAS-2B cells/well grown for 24 h in flat-bottom 96-well plates. Poly(I:C) was added to a final concentration of 0.13 μg/ml.
Method for V. angustum: (§3) Vibrios bacteria such as V. angustum or V fischeri were cultured in LM at 30° C. The V. angustum culture was 200× diluted, V. fischeri culture was 40× diluted. […] The peptides were incubated with the bacteria for 1 hour at 30° C. before plated into the bacteria culture (100 μL peptides and 20 μL mock). The cultures were incubated overnight and Colony Forming Units (CFUs) were counted.
Method for V. fischeri: as §3
Method for Vibrio vulnificus: The number of symptom-less mice in cages of 5 mice were recorded as a function of time. About 50 colony forming units of V. vulnificus were introduced into a surgical incision. The antimicrobial peptide B22 was introduced into the incision at 5 μM 1 h after the introduction of V. vulnificus to the surgical incision.
A lethal sepsis model from Vibrio vulnificus infection of CD-1 mice was selected. […] Cages of 5 mice were monitored every 2 h.

GRFKRFRKKLKKLFKKLSPVIPLL [BMAP-24]: in the data set with E. coli Top10pHNSHP45 (2 μM (FIG. 13)), the “Viable colonies of Top10pHNSHP45 relative to BMAP27B” value is on record as “reduced the number of viable colonies relative to BMAP27B”. For the same compound, in the data set on Toll-like receptor 3, the IL-6 production entry is “do not enhance” and the IL-8 production entry is given as “do not enhance”. The compound also registered an MIC against Enterobacter cloacae of 2 µM. Also, in the data set on Klebsiella pneumoniae, the “MICs with the carbapenem-resistant K. pneumoniae” value was at most 4 µM. The MIC with Enterococcus faecalis stood at 4 µM. Also, in the data set with Staphylococcus aureus, the MIC was over 64 µM and the “MICs for two strains of S. aureus” value was at least 64 µM.
For “GLRKKFRKTRKRIQKLGRKIGKTGRKVWKAWREYGQIPYPCRI [CAP-11, reference compound]”, the “Number of strains inhibited at 16 μg/ml” value in the data set with 19 Gram-negative strains was 16/19. For the same compound, the Minimal inhibitory concentration in the data set with Escherichia coli is over 32 µg/mL.
As to Ac-FRKKLKKLFKKLSPVIPLLKLG-NH2 [AB22a], the “Toxicity signs in mice injected with peptide” value (“Toxicity signs” below) in data set [1] was “no obvious effects on mice behavior or appearance”; in [1] (listed as AB22N) it was “no obvious symptoms were observed”.
On to FRKKLKKLFKKLSPVIPLLKLG [Peptide B22], for which the MIC is 2 µM in the data set with Pseudomonas aeruginosa, 2 µM against Enterobacter cloacae, over 32 µM in the data set on Enterococcus faecalis and over 64 µM against Staphylococcus aureus. The figures for the Minimal inhibitory concentration with Enterobacter cloacae and in the data set on Serratia marcescens were 4 µM and over 32 µM, respectively. In the data set with Klebsiella pneumoniae, the “MICs with the carbapenem-resistant K. pneumoniae” value is at most 4 µM. In the data set with Staphylococcus aureus, the “MICs for two strains of S. aureus” value was at least 64 µM. In addition, in the data set with Vibrio vulnificus, the “Symptoms of mice treated with B22 alone” value is on record as “no symptom throughout the experiment”.
Turning to GRFKRLRKKLKKLFKKLSPVIPLLHLG [BMAP-27B], the minimum inhibitory concentration (MIC) against Pseudomonas aeruginosa is 4 µM; with Enterobacter cloacae it was 4 µM; in the data set on Staphylococcus aureus, over 64 µM. The Minimal inhibitory concentration with Pseudomonas aeruginosa and in the data set with Enterobacter cloacae was 4 µM throughout. The RBC lysis entry in data set [2] is listed as “decreased RBC lysis compared to the control H2O”. The “Cytotoxicity, MTT assay” value with Cultured human cells is “no increased cytotoxicity compared to the controls”.
With `CC[C@H](C)[C@H](NC(=O)[C@@H](NC(=O)[C@@H]1CCCN1C(=O)[C@H](CO)NC(=O)[C@H](CC(C)C)NC(=O)[C@H](CCCCN)NC(=O)[C@H](CCCCN)NC(=O)[C@H](Cc1ccccc1)NC(=O)[C@H](CC(C)C)NC(=O)[C@H](CCCCN)NC(=O)[C@H](CCCCN)NC(=O)[C@H](CC(C)C)NC(=O)[C@H](CCCCN)NC(=O)[C@H](CCCCN)NC(=O)[C@H](CCCNC(=N)N)NC(=O)[C@H](Cc1ccccc1)NC(C)=O)C(C)C)C(=O)N1CCC[C@H]1C(=O)N[C@@H](CC(C)C)C(=O)N[C@@H](CC(C)C)C(=O)N[C@@H](CCCCN)C(=O)N[C@@H](CC(C)C)C(=O)NCC(=O)NCCOCCOCC(=O)O` [AB22P] (Ac-FRKKLKKLFKKLSPVIPLLKLG[AEEA]-OH), the “Toxicity signs” value in data set [1] was “no obvious symptoms were observed; also recorded: no obvious effects on mice behavior or appearance”.
Regarding “RGLRRLGRKIAHGVKKCGPTVLRIIRIAGC [SMAP-29C]”, in the data set on V. angustum, the “Growth of V. angustum” value is “growth reduction correlation to the concentration of SMAP-29C”. In the data set with V. fischeri, the “Growth of V. fischeri” value is “growth reduction correlation to the concentration of SMAP-29C”. Besides, the “Growth of V. harveyi” value in the data set with V. harveyi is “growth reduction correlation to the concentration of SMAP-29C”. The “Reduction of Top10pHNSHP45 colony formation” value in the data set on E. coli Top10pHNSHP45 is recorded as “several logs”.
Compound “ARKKLKKLAKKLSPVIPLLKLG-NH2 [Peptide B22m2]” gave an MIC against Pseudomonas aeruginosa of 4 µM. Also, in the data set on E. coli ATCC 25922, the “Viable colony formation, E. coli ATCC 25922” value was 8.7 × 10^4 and the “Fold reduction, E. coli ATCC 25922” value is 9. Also, in the data set on P. aeruginosa PAO1, the “Reduction of viable colony formation by P. aeruginosa” value was “more than 2 logs”; the “Viable colony formation, P. aeruginosa PAO1” value is 7.3 × 10^3; the “Fold reduction, P. aeruginosa PAO1” value stood at 164. For the same compound, the MIC against Escherichia coli stood at 4 µM.
In the case of “FRKKLKKLAKKLSPVIPLLKLG-NH2 [Peptide B22m1]”, the MIC against Pseudomonas aeruginosa stood at 2 µM. Moreover, in the data set on E. coli ATCC 25922, the “Killing of E. coli compared with B22a” value is “comparable killing”; the “Viable colony formation, E. coli ATCC 25922” value is listed as 4.7 × 10^5; the “Fold reduction, E. coli ATCC 25922” value is 170. Also, in the data set on P. aeruginosa PAO1, the “Killing of P. aeruginosa compared with B22a” value is “comparable killing”; the “Viable colony formation, P. aeruginosa PAO1” value is given as under 20; the “Fold reduction, P. aeruginosa PAO1” value is listed as over 6000. For the same compound, the “Growth rate of P. aeruginosa” value with P. aeruginosa is on record as “perceptibly reduced”. The MIC against Escherichia coli was determined as 2 µM.
Regarding Colistin [reference compound], in the data set on E. coli Top10pHNSHP45 (2 μM, 5 minute incubation (FIG. 12A)), the “Killing of E. coli Top10pHNSHP45” value is “resistant”. Moreover, the “Reduction of Top10pHNSHP45 colony formation” value with E. coli Top10pHNSHP45 is reported as “little effect”. Further, the MIC in the data set with Klebsiella pneumoniae (Table 8, clinical isolate 262 (NDM1+)) is over 8 µg/mL; against Klebsiella pneumoniae (Table 8, clinical isolate 284), 16 µg/mL; against Klebsiella pneumoniae (Table 8, clinical isolate 330) it was over 16 µg/mL; with Klebsiella pneumoniae (Table 8, clinical isolate 361), over 16 µg/mL; in the data set on Klebsiella pneumoniae (Table 11, clinical isolate 265), over 8 µg/mL; against Klebsiella pneumoniae (Table 11, clinical isolate 284), 16 µg/mL. For the same compound, the MIC against Klebsiella pneumoniae (Table 11, clinical isolate 330) is over 16 µg/mL; in the data set on Klebsiella pneumoniae (Table 11, clinical isolate 361), over 16 µg/mL.
For “RLGNFFRKVKEKIGGGLKKVGQKIKDFLGNLVPRTAS [RL-37]”, in the data set on 19 Gram-negative strains, the “Number of strains inhibited at 16 μg/ml” value is 7/19.
Regarding LLGDFFRKSKEKIGKEFKRIVQRIKDFLR [LL-29], the “Number of strains inhibited at 16 μg/ml” value in the data set on 19 Gram-negative strains is given as 4/19.
As for “FRKKLKKLFKKLSPVIPLLKLG-NH2 [Peptide B22a]”, the minimal inhibitory concentration (MIC) with Pseudomonas aeruginosa and against Escherichia coli was 2 µM each time. Also, the Minimal inhibitory concentration with Pseudomonas aeruginosa is 2 µM; in the data set on Enterobacter cloacae it was 4 µM; in the data set with Klebsiella pneumoniae, 2 µM; in the data set with Serratia marcescens, over 32 µM. The “Toxicity signs” value in data set [1] was “did not exhibit distress or signs of toxicity”.
